Test results as given in US20240261302A1, “METHODS OF TREATING NEURODEGENERATIVE DISEASES OR CONDITIONS” (FloraScience Inc., priority 2023, published 2024).
Like-named read-outs stand apart in the source and are kept apart here.

Columns and labels:
HT22 cells [1] = test: Immunoblotting (Western blots) of protein levels; assay type: cell-based, mouse
Method: Cell Protein Extraction. HT22 cells were seeded onto 10 cm dishes at a density of 400,000 cells/dish in DMEM supplemented with 10% FBS and 1% antibiotics, and then exposed to the desired treatments. For total protein extracts, HT22 cells were washed with ice-cold phosphate buffered saline (PBS) and lysed with cell extraction buffer containing 10 mM Tris, pH 7.4, 100 mM NaCl, 1 mM EDTA, 1 mM EGTA, 1 mM NaF, 20 mM Na4P2O7, 2 mM Na3VO4, 1% Triton X-100, 10% glycerol, 0.1% sodium dodecyl sulfate (SDS), 0.5% sodium deoxycholate, a protease inhibitor cocktail, and a phosphatase inhibitor cocktail followed by centrifugation (14000 g) for 30 min at 4° C. For nuclear extracts, HT22 cells were washed with ice-cold PBS, incubated with a nuclear fractionation buffer containing 10 mM HEPES, pH 7.9, 10 mM KCl, 0.1 mM EDTA, 0.1 mM EGTA, 1 mM DTT, 1 mM Na3VO4, a protease inhibitor cocktail, and a phosphatase inhibitor cocktail on ice for 15 min, then Nonidet P-40 at a final concentration of 0.6% was added to the buffer. Cells were vortexed, and the nuclei pelleted by centrifugation (1000 g) for 10 min at 4° C. Nuclear proteins were extracted by sonication of the nuclear pellet in nuclear fractionation buffer followed by centrifugation (14000 g) for 30 min at 4° C. The resulting supernatants of total/nuclear protein extracts were stored at −80° C. until analysis. Concentrations of the harvested proteins were determined by the BCA protein assay.
Immunoblotting. Western blots were carried out as follows. Laemmli sample buffer with 2% β-mercaptoethanol was added to the samples and then boiled for 5 min prior to SDS-PAGE. Equal amounts of cellular protein for each sample (10 μg per lane) were resolved by 4-12% gradient Criterion XT Precast Bis-Tris Gels (Bio-Rad, Hercules, CA) and transferred onto PVDF membranes with a Trans-Blot Turbo System (Bio-Rad, Hercules, CA). The membranes were blocked with 5% skim milk in TBST (20 mM Tris buffer, pH 7.5, 0.5 M NaCl, 0.1% Tween 20) for 1 hr at room temperature and incubated overnight at 4° C. with the diluted primary antibody in 5% BSA in TBST. After washes with TBST, the membranes were incubated with horseradish peroxidase-conjugated goat anti-rabbit or anti-mouse secondary antibodies (Bio-Rad, Hercules, CA) diluted 1:5000 in 5% skim milk in TBST. For all primary antibodies, the same membrane was re-probed for β-actin or an antiserum reacting with the total protein. After additional washing, protein bands were detected using the SuperSignal West Pico PLUS Chemiluminescent Substrate, and visualized with a ChemiDoc MP Imaging System (Bio-Rad, Hercules, CA). Band density was quantified densitometrically with Image Lab software (Bio-Rad, Hercules, CA). Relative protein expression was normalized to ß-actin band density. Each Western blot was performed three to six times with independent protein samples (n=3−6).

primary cortical neurons = test: Neuroprotection against RSL3 in primary neurons; assay type: cell-based, rat; settings: CBN 10 μM, data not shown
Method: Embryonic Cortical Neuron Extraction. Primary cortical neurons were prepared from embryonic day 17 Sprague-Dawley rat pups and used at 7 days in vitro as previously described (7 DIV). Neurons were dissociated from the cortex and maintained in Neurobasal-A medium (Invitrogen, Cat #10888022, Carlsbad, CA) supplemented with B-27 Supplement (Invitrogen, Cat #17504044, Carlsbad, CA), 2 mM glutamine, and 1% antibiotics including penicillin and streptomycin. Cell cultures were incubated at 37° C. in a fully humidified atmosphere containing 10% CO2. All animal procedures were approved by the Salk Institute's Institutional Animal Care and Use Committee.

[2] = Trolox Equivalent Antioxidant Capacity (TEAC) Assay; assay type: biochemical; settings: 5 to 10 μM, compared to Trolox at 5 μM
Method: Trolox Equivalent Antioxidant Capacity (TEAC) Assay. Briefly, an aqueous 2,2′-azino-bis(3-ethylbenzothiazoline-6-sulfonic acid) (ABTS) solution (7 mM) was treated with potassium persulfate (K2S2O8) (2.5 mM) overnight at room temperature in the dark and diluted in water to an OD value of 0.7 at 734 nm. 190 μL of the diluted ABTS solution was added to a 96-well plate containing 10 μL of test compounds or Trolox at the desired concentrations. The plate was vigorously mixed and incubated for 4 min at room temperature in the dark. Optical absorbance was measured at 734 nm on a SpectraMax M5 microplate reader. The decrease in absorbance of the ABTS radical cation indicates the presence of antioxidants. Samples were analyzed in eight wells per independent experiment (n=8). The TEAC values of each sample were presented as the percentage of the standard Trolox at 5 μM.

HT22 cells [3] = test: Ferroptosis Assay (RSL3-induced cell death, MTT); assay type: cell-based, mouse; settings: for EC50: Mus musculus, HT-22, MTT
Method: Ferroptosis Assay: HT22 cells were seeded at 3,000 cells/well in 96-well tissue culture plates in DMEM plus 10% FBS and 1% antibiotics. After 24 hr of plating, the cells were pretreated with different concentrations of test compounds or a vehicle control for 1 hr followed by coincubation with 50 nM RSL3 to induce the cell death cascade. After 16 hr of treatment, cell viability was measured by the MTT assay. Optical absorbance was measured at 570 nm on a SpectraMax M5 microplate reader. Samples were analyzed in eight to sixteen wells per independent experiment (n=8-16). Results were presented as the percentage of the controls with vehicle alone.

[4] = Iron (Fe^2+) Binding Assay (ferrozine method); settings: 5 to 10 μM, compared to deferiprone 5 μM
Method: Iron (Fe^2+) Binding Assay. Ferrous iron binding was measured by the ferrozine method. Briefly, test samples at the desired concentrations were mixed with 5 μM ferrous sulfate (FeSO4) in 100 μL of 50 mM HEPES, pH 7.5 in a 96-well plate. After 2 min, 50 μL of 5 mM ferrozine was added and the optical absorbance at 562 nm was measured on a SpectraMax M5 microplate reader. Each sample was analyzed in eight wells per independent experiment (n=8). Iron binding capacities were presented as the percentage of the vehicle controls without (100%) or with iron (0%).

With CCCCCc1cc(O)c2c(c1)OC(C)(C)c1ccc(C)cc1-2 [CBN, 6,6,9-Trimethyl-3-pentyl-benzo[c]chromen-1-ol] the “DRP1 and MFF levels, co-treatment with RSL3” value (HT22 cells [1]) was “restored DRP1 levels but not MFF levels”, the “MFF and DRP1 expression, compound alone” value (HT22 cells [1]) was “significantly enhanced the expression of MFF but not DRP1” and the “OPA1 and MFN2 expression, co-treatment with RSL3” value (HT22 cells [1]) was “enhanced the expression of OPA1 but not MFN2”. The “PGC-1α and TFAM levels, compound alone” value (HT22 cells [1]) was “no apparent effects”, the “RSL3-induced decrease of SIRT1, pAMPK/AMPK, PGC-1α, NRF1, TFAM” value (HT22 cells [1]) was “prevented” and the “protein expression of OXPHOS complexes I, II, III and V, compound alone” value (HT22 cells [1]) was “did not exert obvious effects”. The “protein expression of SIRT1, pAMPK(Thr172)/AMPK and NRF1, compound alone” value (HT22 cells [1]) was “upregulated”, the “RSL3-induced upregulation of OXPHOS complexes” value (HT22 cells [1]; 50 nM RSL3) was “inhibited” and the “effect on ATF4 with RSL3” value (HT22 cells [1]; 5 μM CBN, 50 nM RSL3) was “not significant”. The “protein levels of Nrf2, HO-1, SOD2 and GPX4 with RSL3” value (HT22 cells [1]; 5 μM CBN, 50 nM RSL3) was “at levels similar to the control cells”, the “protein levels of Nrf2, HO-1, SOD2 and GPX4, compound alone” value (HT22 cells [1]; 5 μM, 16 h) was “upregulation” and the “MCU expression, compound alone” value (HT22 cells [1]; 5 μM, 16 hr) was “reduced basal MCU expression”. The “RSL3-induced HSP60 upregulation” value (HT22 cells [1]; 16 h) was “suppressed”, the “VDAC level, compound alone” value (HT22 cells [1]; 16 h) was “upregulated” and the “OPA1 and MFN2 levels, compound alone” value (HT22 cells [1]; 16 hr) was “upregulated”. The “RSL3-induced MCU upregulation” value (HT22 cells [1]; p<0.0001) was “prevented this increase”, the “RSL3-induced VDAC decrease” value (HT22 cells [1]; p<0.0001) was “prevented” and the “protein level of OXPHOS complex IV, compound alone” value (HT22 cells [1]; p<0.0001) was “reduced”. For the same compound, the “neuroprotection against 50 nM RSL3” value (primary cortical neurons) was roughly 100%, the “capacity to scavenge total free radicals (TEAC)” value [2] was “relatively weak capacity” and the RSL3-induced morphological changes (HT22 cells [3]; 5 μM pretreatment 1 hr, then 50 nM RSL3 16 hr) was “effectively prevented”. The “neuroprotection against 50 nM RSL3” value (HT22 cells [3]; HT22 cells, CBN 10 μM, data not shown) was roughly 100%, the EC50 (HT22 cells [3]; HT22 cells, 1 hr pretreatment, 50 nM RSL3, 16 hr, read-out: Observed EC50 RSL3) was 390 nM and the EC50 (HT22 cells [3]; HT22 cells, 16 hr, read-out: EC50 against oxytosis/ferroptosis induced by 50 nM RSL3 (FIG. 2H)) was 690 nM. For the same compound, the “Fe^2+ binding” value [4] was “did not show significant Fe^2+ binding”.
